Experimental data taken from patent publication US10307411B2, “Use of cotinine in treating or preventing neurogenesis deficits and enhancing neurogenesis” (Department of Veterans Affairs, priority 2014, dated 2019).

Columns and labels:
[1] = system: neurogenesis genes in the hippocampus of mice; experiment: Neurogenesis and neural stem cell RT-PCR array on hippocampus of mice subjected to forced swimming stress; assay type: in vivo
From the text: (§1) Two-month-old male C57BU6J mice (The Jackson Laboratory, Bar Harbor, Me.), weighing 25-30 g were maintained on a 12-hours light/dark cycle (light on at 07:00) with ad libitum access to food and water and maintained at a regulated temperature of 25±1″C. Upon arrival mice were group-housed and acclimated for 7 days before any intervention.
(§2) Mice were randomly divided into three groups as follows: group 1 controls that were not exposed to stress (NES) and treated with vehicle (phosphate buffered saline, PBS); group 2 controls subjected to forced swimming stress (FSB) and treated with vehicle; group 3 subjected to forced swimming stress and treated with cotinine (FSA).
(§3) Cotinine ((5S)-1-methyl-5-(3-pyridyl) pyrrolidin-2-one; Sigma-Aldrich Corporation, St. Louis, Mo., USA) solutions were prepared by dissolving the powdered compound in sterile phosphate buffered saline (PBS), and vehicle (PBS). Mice were treated with vehicle or cotinine (5 mg/kg) via gavage. […] All investigators were blind to treatment groups and doses were chosen based on previously studies (Zeitlin, et al., (2012) Cotinine enhances the extinction of contextual fear memory and reduces anxiety after fear conditioning. Behav Brain Res, 228, 284-293.). Treatments were administered for 7 days before the induction of stress. For all animals, treatment continued from the onset of treatment until euthanasia.
(§4) To induce chronic stress, mice were subjected to repetitive forced swimming (FS) for six consecutive days, for six minutes each day, as described previously (Furukawa-Hibi, et al., (2011) The hydrophobic dipeptide Leu-lie inhibits immobility induced by repeated forced swimming via the induction of BDNF. Behav Brain Res. 2011 Jul. 7; 220(2):271-280). Each mouse was placed in an inescapable transparent plastic cylinder (40 centimeters (cm) high×20 cm in diameter) filled with water to a depth of 30 cm, for six minutes. Water temperature was maintained at 24-25° C. and water was changed between all trials. In all cases, following exposure, animals were retrieved, dried with a hand towel and returned to their home cages. Mice assigned to NES control group were removed from the animal housing facility and taken to the behavioral testing room during the same period of time than FS mice, but remained in their home cages during the FS period. In all experiments, no mice needed assistance to avoid drowning.
(§5) Following behavioral experimentation, euthanasia was performed via cervical dislocation under anesthesia with isofluorane (4% induction, 2% maintenance) by investigators not assigned to prior work with the mice blinded to the treatments. Whole brains were collected and immediately stored frozen at −80° C.
(§6) The hippocampi were dissected on ice and placed into RNAlater tubes (Life Technologies; Thermo Fisher Scientific, Waltham, Mass.). RNAlater is a proprietary solution which protects RNA in tissue samples from degradation to allow for analysis at a later date. RNase free conditions were created and maintained throughout the procedure by washing labware in a 0.1% DEPC solution followed by rinsing with RNase free water. Total RNA extraction and purification was performed using RNeasy Lipid Tissue Extraction Kit (Qiagen N.V., Venlon NL). Sample homogenization was performed using Kontes Pellet Pestle Cordless Motor and/or 20 gauge needle and syringe. Samples were extracted using a Qiazol/Chloroform extraction. The samples were purified on an RNeasy spin column using multiple washes. An on-column DNase incubation was performed in order to remove contaminating DNA. The entire extraction and purification step was performed twice to remove all contaminating DNA for samples ran on the neurogenesis arrays. Samples were eluted in RNase free water.
(§7) Nucleic acid quantification was performed on the RNA, to determine how many microliters of sample to add to the cDNA reaction, as the reaction requires a specific concentration of RNA to achieve optimal results. […]

[2] = system: inflammation genes in the hippocampus of stressed mice; experiment: Inflammatory response and Autoimmunity PCR array (RT-PCR) on hippocampus of mice subjected to forced swimming stress; assay type: in vivo
From the text: as §1, §2, §3, §4, §5, §6, §7

Chinese hamster ovary = details: 0-1000 μg/ml; cited from earlier work
Salmonella = details: 0-1000 μg/plate; cited from earlier work
[3] = stressed mice treated with cotinine compared to stressed mice treated with vehicle
[4] = hippocampus, forced swimming stress, cotinine 5 mg/kg gavage vs stressed vehicle-treated (FSB)
[5] = stressed mouse, cotinine vs vehicle

SMILES: CN1C(=O)CC[C@H]1c1cccnc1 [cotinine, (5S)-1-methyl-5-(3-pyridyl) pyrrolidin-2-one]
- decrease in share of down-regulated neurogenesis genes ([1]; FSA versus stressed vehicle-treated, each compared to non-stressed mice): 17%
- neurogenesis genes down-regulated ([1]; forced swimming stress + cotinine (FSA) compared to mice not exposed to stress): 56%
- neurogenesis genes analyzed that were up regulated ([1]; hippocampi from cotinine-treated stressed mice compared to vehicle-treated stressed mice): 67%
- VEGFa mRNA expression, RT-PCR assay ([1]; hippocampus of cotinine-treated FS mice compared to vehicle-treated FS mice (p<0.01)): up-regulated
- number of neurogenesis genes with differential regulation ([1]; results from all three comparisons, 1.3-fold cut-off with opposite effect by cotinine): 15 genes
- Errb2 expression up regulation ([1]; stressed mice treated with cotinine compared to stress control mice): 1.3 fold
- Artn expression up regulation [1, 3]: 1.2 fold
- EGF expression up regulation [1, 3]: 1.5 fold
- Gdnf expression up regulation [1, 3]: 2.0 fold
- VEGFa expression up regulation [1, 3]: 1.3 fold
- number of inflammation genes differentially expressed ([2]; cut off of two-fold difference, stressed mouse treated with cotinine versus stressed mouse treated with vehicle): 10 genes
- Fos expression decreased by ([2]; forced swimming + cotinine compared to forced swimming + vehicle): 2.5 fold
- Complement component 3 (C3) decreased by ([2]; forced swimming + cotinine compared to stressed mouse treated with vehicle): 2.9 fold
- C3 (Complement component 3) Fold regulation comparing to FSB [2, 4]: −2.89 fold
- Ccl1 (Chemokine (C-C motif) ligand 1) Fold regulation comparing to FSB [2, 4]: 2.21 fold
- Ccl2 (Chemokine (C-C motif) ligand 2) Fold regulation comparing to FSB [2, 4]: 2.46 fold
- Ccl3 (Chemokine (C-C motif) ligand 3) Fold regulation comparing to FSB [2, 4]: −4.00 fold
- Ccr2 (Chemokine (C-C motif) receptor 2) Fold regulation comparing to FSB [2, 4]: −2.87 fold
- Ccr4 (Chemokine (C-C motif) receptor 4) Fold regulation comparing to FSB [2, 4]: 2.96 fold
- Fos (FBJ osteosarcoma oncogene) Fold regulation comparing to FSB [2, 4]: −2.55 fold
- Nos2 (Nitric oxide synthase 2, inducible) Fold regulation comparing to FSB [2, 4]: −3.93 fold
- Tlr1 (Toll-like receptor 1) Fold regulation comparing to FSB [2, 4]: 2.32 fold
- Tnfsf14 (Tumor necrosis factor (ligand) superfamily, member 14) Fold regulation comparing to FSB [2, 4]: 6.18 fold
- inflammation genes analyzed that were down-regulated ([2]; stressed mice treated with cotinine vs stressed vehicle, hippocampus): 61%
- Ccl3 change (down regulated by cotinine) [2, 5]: 2.8 fold
- Ccr2 change (down regulated by cotinine) [2, 5]: 4.0 fold
- genotoxic effects, sister chromatid exchange (SCE) (Chinese hamster ovary): no genotoxic effects
- genotoxic effects, Salmonella mutagenicity (Salmonella): no genotoxic effects
